These results are taken from patent US12485124B2, “Methods for treating alzheimer disease and for reducing amyloid beta formation” (ARIBIO CO., LTD., priority 2019, dated 2025).

The subject of assay [1] is LC3B, p62, APP, Aβ1-42 in Retinoic Acid Differentiated SH-SY5Y Human Neuroblastoma Cell. Description: Western Blot of Autophagy Markers LC3B and p62. Type of assay: cell-based. As to conditions: 3-MA 5 mM together with the present invention; Aβ1-42 Oligomer 1 μM. The method, then:
To extract the proteins, the cells were treated with RIPA Lysis Buffer (Bio-Rad), homogenized, and centrifuged (14,000 rpm, 10 minutes, 4° C.) to obtain the supernatant. 5% Stacking Gel (DW, 30% Acrylamide: Bisacrylamide, 1M Tris pH 6.8, 10% SDS, TEMED, 10% Ammonium Persulfate) and 12% Separating Gel (DW, 30% Acrylamide: Bisacrylamide, 1.5M Tris pH 8.8, 10% SDS, TEMED, 10% Ammonium Persulfate) were used for SDS-PAGE. Supernatant obtained by centrifugation was mixed with 4× Lacmmli Buffer (Bio-Rad) in 3:1 ratio and boiled at 95° C. for 10 minutes to denature the proteins. The mixture was cooled in an ice bath for 10 minutes and span down. Protein Size Marker (Bio-Rad) and each sample were added to Stacking Gel Well prepared in Mini-Protein II Dual-Slab Apparatus (Bio-Rad) and electrophoresed at 150 volt till all are precipitated to the bottom. Polyvinylidene Difluoride (PVDF) Membrane was moistened with methanol to activate and washed with Transfer Buffer (190 mM Glycine, 50 mM Tris-Base, 0.05% SDS, 20% Methanol). Whatman 3M Paper moistened with Transfer Buffer was stacked in Mini Trans-Bolt Cell (Bio-Rad) and run electricity at 200 mA for 60 minutes to deposit the membrane. After the deposition, the membrane was blocked with 5% Skim milk solution (in TBS-T: 10 mM Tris-Base pH 8.0, 150 mM NaCl, 0.1% Tween-20) on a Platform Shaker for 60 minutes. The primary antibodies were diluted in 5% Skim Milk in an optimum concentration for each, put on platform shaker at 4° C. for 16 hours. […] Finally, Membrane was added to SuperSignal™ West Femto Maximum Sensitivity Substrate (Thermo Scientific™) and expressed the color properly before the membrane was scanned using image analysis system and the amount of protein was calculated using Image J Software (NIH, USA). […]

In another assay the test system is BACE-1 and Cathepsin B. As to conditions: reported in J Gerontol a Biol Sci Med Sci 2015; J Urol. 2016; cited from earlier work.

Regarding `Cn1cnc(N)c2ncnc1-2` [3-MA, 3-Methyladenine], in assay [1], the “APP formation and Aβ1-42 accumulation” value was “APP formation and Aβ1-42 accumulation increased”; the “Autophagic Flux (LC3B-II/I Ratio)” value is recorded as “Autophagic Flux (LC3B-II/I Ratio) increased by the present invention was reduced”; the “expression of p62” value is “expression of p62 reduced by the present invention increased”.

Consider `CCCc1nn(C)c2c(=O)[nH]c(-c3cc(S(=O)(=O)N4CCN(C)CC4)ccc3OCC)nc12` [Sildenafil], for which, in the assay on BACE-1 and Cathepsin B, the “BACE-1 and Cathepsin B expression” value is “suppressed BACE-1 and Cathepsin B expression”.
